Consider 1 molecule from patent US20240123079A1 (Seagen Inc., priority 2021, published 2024).

In series [1] the test system is MOLM-13. Description: Cancer cell direct cytotoxicity assay (CellTiter-Glo), MOLM-13. Particulars: Homo sapiens; MOLM-13, 96 h, free compound; read-out: Compound X50. In kind it is cell-based. How it is done:
Bystander activity of ADCs was evaluated using Renca cancer cells and THP1-Dual™ cells (InvivoGen) which contain an IRF-Lucia luciferase reporter. Cells were cultured in RPMI-1640 (Gibco) with 10% heat-inactivated fetal bovine serum, Pen-Strep (100 U/ml-100 μg/ml, Gibco), HEPES (10 mM, Gibco), sodium pyruvate (1 mM, Gibco), MEM non-essential amino acids (1×, Gibco), GlutaMAX (1×, Gibco), and beta-mercaptoethanol (55 μM, Gibco). Renca cells were plated in a 96-well flat bottom tissue culture-treated clear polystyrene plate (Corning Costar #3596) at 50,000 cells per well in 100 μL. On the day following the initial plating, 50,000 THP1-Dual™ cells were added to each well with the indicated concentration of ADC in a total volume of 200 μL. Supernatant was harvested at 48 hours post addition of the THP1-Dual™ cells. To measure Lucia reporter signal, 10 μL of supernatant was combined with 40 μL of QUANTI-Luc™ Luminescence assay reagent (Invivogen PN: rep-qlc1) in a 96-well clear flat bottom tissue culture-treated black polystyrene plate (Corning Costar PN: 3603) and read on a Perkin Elmer Envision plate reader. In some experiments, HEK 293T cells engineered to express a murine protein typically expressed by immune cells (target antigen C— an immune cell antigen) were plated as above instead of Renca tumor cells. Cancer Cell Direct Cytotoxicity Assay
Cancer cells were counted and plated in 40 μL complete growth media in 384-well, white-walled tissue culture treated plates (Corning). Cell plates were incubated at 37° C. and with 5% CO2 overnight to allow the cells to equilibrate. Stock solutions containing ADCs or free drugs were serially diluted in RPMI-1640+20% fetal bovine serum (FBS). 10 μL of each concentration were then added to each cell plate in duplicate. Cells were then incubated at 37° C. and with 5% CO2 for 96 hours, upon which, the cell plates were removed from the incubator and allowed to cool to room temperature for 30 minutes prior to analysis. […] The luminescence of the samples was measured using an EnVision Multimode plate reader (Perkin Elmer, Waltham, MA). […]
(Cellular ATP, detected with luciferase, serves as a proxy for viable cell number.)

Series [2] can be described thus: In vivo cytokine assay, plasma of Renca tumor-bearing mice. Further details: species or system mouse. Particulars: for IL1β in plasma / IL12p70 in plasma / IL-6 in plasma / IL-10 in plasma / IP10 in plasma / MCP-1 in plasma / IFNγ in plasma: Renca tumor-bearing mice, 1.48 mg/kg. The protocol: Cytokines were measured in mouse plasma harvested at 3, 6, 24, or 48 hours after treatment with compounds or ADCs using a Milliplex MAP mouse cytokine/chemokine magnetic bead panel assay kit (MCYTOMAG-70k custom 11-plex kit: MCP1, MIP1α, MIP1β, TNFα, IFNγ, IL-10, IL-12p70, IL-6, IL-1β, IP10, RANTES) and analyzed using a Luminex™ MAGPIX™ Instrument System. Values that were outside of the standard curve range (<3.2 or […]) were excluded from calculation of the mean values.

Where only a bound is given, the exact number is not on record here.

For `CCn1nc(C)cc1C(=O)Nc1nc2cc(C(N)=O)cc(O)c2n1C/C=C/Cn1c(NC(=O)c2cc(C)nn2CC)nc2cc(C(N)=O)cc(OC)c21` [Compound 1, (E)-1-(4-(5-carbamoyl-2-(1-ethyl-3-methyl-1H-pyrazole-5-carboxamido)-7-hydroxy-1H-benzo[d]imidazol-1-yl)but-2-en-1-yl)-2-(1-ethyl-3-methyl-1H-pyrazole-5-carboxamido)-7-methoxy-1H-benzo[d]imidazole-5-carboxamide], the IC50 in series [1] worked out at 42 nM. In addition, in series [2] (3 h), the IL1β in plasma came out at 0.7 pg/mL, the IL12p70 in plasma stood at 174 pg/mL, the IL-6 in plasma worked out at 95.7 pg/mL and the IL-10 in plasma stood at 48.8 pg/mL. In series [2] (3 h), this molecule yielded an IP10 in plasma of 703 pg/mL and an MCP-1 in plasma of 168 pg/mL. In series [2] (6 h), the IFNγ in plasma worked out at 0.2 pg/mL, the IL1β in plasma stood at 1.5 pg/mL, the IL12p70 in plasma was less than 3.2 pg/mL and the IL-6 in plasma is 6.8 pg/mL. Besides, in series [2] (6 h), the IL-10 in plasma is 0.8 pg/mL, the IP10 in plasma was determined as 3390 pg/mL and the MCP-1 in plasma came out at 796 pg/mL. In series [2] (24 h), the IFNγ in plasma is less than 3.2 pg/mL, the IL1β in plasma turned out to be 0.8 pg/mL, the IL12p70 in plasma was 140 pg/mL and the IL-6 in plasma was determined as 13.5 pg/mL. In series [2] (24 h), this molecule registered an IL-10 in plasma of 34.6 pg/mL and an IP10 in plasma of 551 pg/mL. Besides, the “systemic pro-inflammatory cytokine (IL-6 and TNF) production” value in series [2] (plasma of tumor-bearing mice) is “induced very little pro-inflammatory cytokine (IL-6 and TNF) production”.
